Test results published in patent publication US20100016232A1, “Treatment Of Inflammatory Diseases With Mammal Beta Defensins” (Novozymes A/S, priority 2008, published 2010).
Marks after values point to notes of the source that are not given here. Where no end group is shown, it is not given here.

Columns and labels:
Format in all cases: in vivo
[1] = tested on: DSS-induced colitis in the mouse; experiment: 10-day DSS-induced colitis, Disease Activity Index (Example 5)
Procedure: Animals were divided into 5 experimental groups.
Colitis was induced in mice by supplementing their drinking water with DSS 2% for 7 days.
(§1) Daily clinical assessment of DSS-treated animals was carried out, with the calculation of a validated clinical Disease Activity Index (DAI) ranging from 0 to 4 according to the following parameters: stool consistency, presence or absence of rectal bleeding and weight loss:
Bodyweight loss was calculated as the percent difference between the original bodyweight (Day 1) and the actual bodyweight on each experimental day (2-10).
The appearance of diarrhoea is defined as mucus/faecal material adherent to anal fur. Rectal bleeding is defined as diarrhoea containing visible blood/mucus or gross rectal bleeding. The maximum score of the DAI each day is 12.

[2] = tested on: DSS-induced colitis in the mouse; experiment: 10-day DSS-induced colitis, Disease Activity Index (Example 6); set-up: key: clinical Disease Activity Index (stool, bleeding, weight loss)
Procedure: as §1
(§2) Example 6 was carried out essentially as described in Example 5. The differences are indicated below.
(§3) Animals were divided into 9 experimental groups.
The animals in group F received one dose i.v. and another dose s.c. (12 hours after the i.v. dose) of the corresponding test item for 10 consecutive days.
The animals in group G received one dose every two days of the corresponding test item for 10 consecutive days.
Methylprednisolone was given orally at a dose of 1 mg/kg (group H) and 10 mg/kg (group J) in a dosing volume of 5 ml/kg body weight, once daily for 10 consecutive days.

[3] = tested on: DSS-induced colitis in the mouse; experiment: 10-day DSS-induced colitis, colon histological score (Example 6)
Procedure: Two sections (proximal and distal) of colon were taken from each animal and preserved in neutral buffered formalin for subsequent histological analysis (haematoxylin and eosin staining) according to the following scoring system:
as §2, §3
Two sections (proximal and distal) of colon were taken from each animal, processed for histological analysis (haematoxylin and eosin staining), and scored by a blind observer according to the scoring system described above.

[4] = Group F, 0.1 mg/kg twice daily i.v. + s.c.
[5] = Group G, 0.1 mg/kg i.v. every 2. day

hBD2: human beta defensin 2, SEQ ID NO:2; produced recombinantly in E. coli (Example 1); hBD2 of Tables 16-18 was prepared by chemical synthesis (GIGDPVTCLKSGAICHPVFCPRRYKQIGTCGLPGTKCCKKP; ends and bridges not checked; cysteine pairing not given here; listed as Homo sapiens)
DAI score ([1]; 0.1 mg/kg i.v. daily, Day 1): 0.00 | DAI score ([1]; 0.1 mg/kg i.v. daily, Day 2): 0.20 | DAI score ([1]; 0.1 mg/kg i.v. daily, Day 3): 0.80 | DAI score ([1]; 0.1 mg/kg i.v. daily, Day 4): 2.90 | DAI score ([1]; 0.1 mg/kg i.v. daily, Day 5): 2.80 | DAI score ([1]; 0.1 mg/kg i.v. daily, Day 6): 3.20 | DAI score ([1]; 1 mg/kg i.v. daily, Day 1): 0.00 | DAI score ([1]; 1 mg/kg i.v. daily, Day 2): 0.00 | DAI score ([1]; 1 mg/kg i.v. daily, Day 3): 0.22 | DAI score ([1]; 1 mg/kg i.v. daily, Day 4): 2.22 | DAI score ([1]; 1 mg/kg i.v. daily, Day 5): 2.44 | DAI score ([1]; 1 mg/kg i.v. daily, Day 6): 2.89 | DAI score ([1]; 1 mg/kg i.v. daily, Day 7): 2.22 | DAI score ([1]; 1 mg/kg i.v. daily, Day 8): 3.67 | DAI score ([1]; 1 mg/kg i.v. daily, Day 9): 5.22 | DAI score ([1]; 10 mg/kg i.v. daily, Day 1): 0.00 | DAI score ([1]; 10 mg/kg i.v. daily, Day 2): 0.60 | DAI score ([1]; 10 mg/kg i.v. daily, Day 3): 1.00 | DAI score ([1]; 10 mg/kg i.v. daily, Day 4): 3.67 | DAI score ([1]; 10 mg/kg i.v. daily, Day 5): 3.11 | DAI score ([1]; 10 mg/kg i.v. daily, Day 6): 3.22 | DAI score ([1]; 10 mg/kg i.v. daily, Day 7): 2.11 | DAI score ([1]; 10 mg/kg i.v. daily, Day 8): 4.11 | DAI score ([1]; 10 mg/kg i.v. daily, Day 9): 6.78 | DAI score ([1]; 10 mg/kg i.v. daily, Day 10): 7.33 | DAI score, mean ([2]; Group B, 1 mg/kg i.v., Day 1): 0.00 | DAI score, mean ([2]; Group B, 1 mg/kg i.v., Day 2): 0.10 | DAI score, mean ([2]; Group B, 1 mg/kg i.v., Day 3): 0.20 | DAI score, mean ([2]; Group B, 1 mg/kg i.v., Day 4): 0.40 | DAI score, mean ([2]; Group B, 1 mg/kg i.v., Day 5): 0.30 | DAI score, mean ([2]; Group B, 1 mg/kg i.v., Day 6): 2.30* | DAI score, mean ([2]; Group B, 1 mg/kg i.v., Day 7): 4.40* | DAI score, mean ([2]; Group B, 1 mg/kg i.v., Day 8): 6.89 | DAI score, mean ([2]; Group B, 1 mg/kg i.v., Day 9): 5.00* | DAI score, mean ([2]; Group B, 1 mg/kg i.v., Day 10): 5.78* | DAI score, mean ([2]; Group C, 0.1 mg/kg i.v., Day 1): 0.00 | DAI score, mean ([2]; Group C, 0.1 mg/kg i.v., Day 2): 0.44 | DAI score, mean ([2]; Group C, 0.1 mg/kg i.v., Day 3): 0.89 | DAI score, mean ([2]; Group C, 0.1 mg/kg i.v., Day 4): 0.56 | DAI score, mean ([2]; Group C, 0.1 mg/kg i.v., Day 5): 0.78 | DAI score, mean ([2]; Group C, 0.1 mg/kg i.v., Day 6): 1.56** | DAI score, mean ([2]; Group C, 0.1 mg/kg i.v., Day 7): 4.13* | DAI score, mean ([2]; Group C, 0.1 mg/kg i.v., Day 8): 5.43* | DAI score, mean ([2]; Group C, 0.1 mg/kg i.v., Day 9): 6.29* | DAI score, mean ([2]; Group C, 0.1 mg/kg i.v., Day 10): 6.86 | DAI score, mean ([2]; Group D, 0.01 mg/kg i.v., Day 1): 0.00 | DAI score, mean ([2]; Group D, 0.01 mg/kg i.v., Day 2): 0.00 | DAI score, mean ([2]; Group D, 0.01 mg/kg i.v., Day 3): 0.30 | DAI score, mean ([2]; Group D, 0.01 mg/kg i.v., Day 4): 0.40 | DAI score, mean ([2]; Group D, 0.01 mg/kg i.v., Day 5): 1.60 | DAI score, mean ([2]; Group D, 0.01 mg/kg i.v., Day 6): 2.70 | DAI score, mean ([2]; Group D, 0.01 mg/kg i.v., Day 7): 6.50 | DAI score, mean ([2]; Group D, 0.01 mg/kg i.v., Day 8): 6.20* | DAI score, mean ([2]; Group D, 0.01 mg/kg i.v., Day 9): 4.60*** | DAI score, mean ([2]; Group D, 0.01 mg/kg i.v., Day 10): 5.20** | DAI score, mean ([2]; Group E, 0.001 mg/kg i.v., Day 1): 0.00 | DAI score, mean ([2]; Group E, 0.001 mg/kg i.v., Day 2): 0.00 | DAI score, mean ([2]; Group E, 0.001 mg/kg i.v., Day 3): 0.10 | DAI score, mean ([2]; Group E, 0.001 mg/kg i.v., Day 4): 0.20 | DAI score, mean ([2]; Group E, 0.001 mg/kg i.v., Day 5): 0.40 | DAI score, mean ([2]; Group E, 0.001 mg/kg i.v., Day 6): 3.40 | DAI score, mean ([2]; Group E, 0.001 mg/kg i.v., Day 7): 7.11 | DAI score, mean ([2]; Group E, 0.001 mg/kg i.v., Day 8): 8.56 | DAI score, mean ([2]; Group E, 0.001 mg/kg i.v., Day 9): 5.89** | DAI score, mean ([2]; Group E, 0.001 mg/kg i.v., Day 10): 6.67 | DAI score, mean ([2]; Group F, 0.1 mg/kg twice daily i.v. + s.c., Day 1): 0.00 | DAI score, mean ([2]; Group F, 0.1 mg/kg twice daily i.v. + s.c., Day 2): 0.30 | DAI score, mean ([2]; Group F, 0.1 mg/kg twice daily i.v. + s.c., Day 3): 0.70 | DAI score, mean ([2]; Group F, 0.1 mg/kg twice daily i.v. + s.c., Day 4): 0.70 | DAI score, mean ([2]; Group F, 0.1 mg/kg twice daily i.v. + s.c., Day 5): 0.60 | DAI score, mean ([2]; Group F, 0.1 mg/kg twice daily i.v. + s.c., Day 6): 0.70*** | DAI score, mean ([2]; Group F, 0.1 mg/kg twice daily i.v. + s.c., Day 7): 3.50** | DAI score, mean ([2]; Group F, 0.1 mg/kg twice daily i.v. + s.c., Day 8): 4.00*** | DAI score, mean ([2]; Group F, 0.1 mg/kg twice daily i.v. + s.c., Day 9): 2.90*** | DAI score, mean ([2]; Group F, 0.1 mg/kg twice daily i.v. + s.c., Day 10): 4.50*** | DAI score, mean ([2]; Group G, 0.1 mg/kg i.v. every 2. day, Day 1): 0.00 | DAI score, mean ([2]; Group G, 0.1 mg/kg i.v. every 2. day, Day 2): 0.20 | DAI score, mean ([2]; Group G, 0.1 mg/kg i.v. every 2. day, Day 3): 0.40 | DAI score, mean ([2]; Group G, 0.1 mg/kg i.v. every 2. day, Day 4): 0.50 | DAI score, mean ([2]; Group G, 0.1 mg/kg i.v. every 2. day, Day 5): 0.50 | DAI score, mean ([2]; Group G, 0.1 mg/kg i.v. every 2. day, Day 6): 2.90 | DAI score, mean ([2]; Group G, 0.1 mg/kg i.v. every 2. day, Day 7): 6.50 | DAI score, mean ([2]; Group G, 0.1 mg/kg i.v. every 2. day, Day 8): 8.70 | DAI score, mean ([2]; Group G, 0.1 mg/kg i.v. every 2. day, Day 9): 7.50 | DAI score, mean ([2]; Group G, 0.1 mg/kg i.v. every 2. day, Day 10): 6.56 | Histology Score Distal Colon, mean ([3]; Group B, 1 mg/kg i.v.): 3.56 | Histology Score Proximal Colon, mean ([3]; Group B, 1 mg/kg i.v.): 1.78 | Histology Score Distal Colon, mean ([3]; Group C, 0.1 mg/kg i.v.): 3.14* | Histology Score Proximal Colon, mean ([3]; Group C, 0.1 mg/kg i.v.): 1.71 | Histology Score Distal Colon, mean ([3]; Group D, 0.01 mg/kg i.v.): 3.10** | Histology Score Proximal Colon, mean ([3]; Group D, 0.01 mg/kg i.v.): 1.70 | Histology Score Distal Colon, mean ([3]; Group E, 0.001 mg/kg i.v.): 3.56 | Histology Score Proximal Colon, mean ([3]; Group E, 0.001 mg/kg i.v.): 1.44 | Histology Score Distal Colon, mean [3, 4]: 2.90*** | Histology Score Proximal Colon, mean [3, 4]: 1.30* | Histology Score Distal Colon, mean [3, 5]: 3.56 | Histology Score Proximal Colon, mean [3, 5]: 1.56
